Here are results for 2 compounds from patent US5561131A, “Defaunation method” (Mallinckrodt Veterinary, Inc., priority 1991, dated 1996).

Data set [1] concerns rumen bacteria. The data set can be described thus: Sheep test: bacterial gas production. The class given is in vivo. The procedure: (§1) In this trial the effect of defaunation by compounds 27, 30 and 37 (see Table 1) after 1 and 3 weeks were examined using penned sheep.
(§2) The compounds were each administered to two sheep as a single dose at 167 mg/kg body weight. Compositions containing each compound were prepared according to the method of Example 1. Sheep were penned and fed 1000 g/day of a chaffed oaten hay and Lucerne mixture (90/10). Protozoal and bacterial viabilities were monitored along with the feed intake of the sheep according to the methods taught in Examples 2, 3 and 7.

Data set [2] has as its system protozoa. Nature of the data set: Cattle defaunation. The settings on record: for Elimination of protozoa from cattle (in words): 332 mg/kg. It is filed as in vivo. The procedure: Four cattle each were defaunated using either compounds No. 27 or No. 37 at a dose rate of 332 mg/kg. The compounds were administered by firstly mixing with 100 mL of ethanol and then adding 400 mL of centrifuged rumen liquor. This mixture was then administered into the rumen of the animal using a stomach tube.

The test system of data set [3] is rumen bacteria. The data set can be described thus: In vitro bacterial gas inhibition. It is filed as cell-based. The settings on record: at the concentration known to kill protozoa.
Data set [4] can be described thus: Pilot field testing: adverse effects and grazing behavior. It is filed as in vivo. The settings on record: sheep, 167 mg/kg. The protocol:
(§3) In this trial the effect of defaunation agents after 1 and 2 weeks was examined in sheep in pilot field studies.
(§4) Thirty mature fine wooled merino weather sheep consuming a forage diet were given a single dose of either compound 27 or 37. The dose rate was 167 mg/kg and each compound was dispersed in 20 mL of ethanol and 200 mL of centrifuged rumen liquor. The compounds were then administered into the rumen using a flexible stomach tube.

Data set [5] relates to protozoa. The data set can be described thus: Wool growth trial: protozoal number. The settings on record: sheep, defaunated period, 167 mg/kg. The class given is in vivo. The protocol: Seven sheep each were defaunated using a dose rate of 167 mg/kg. Compounds were administered by first mixing with 20 ml of ethanol and then with 200 ml of centrifuged rumen liquor. This solution was then administered via a flexible stomach tube directly into the rumen. The sheep were fed with a ration of 90% oaten chaff and 10% Lucerne chaff at a rate of 1000 g per day. The sheep were maintained in a defaunated state by their isolation from faunated sheep to prevent the possibility of refaunation. The sheep were allowed to adjust for 3 weeks after administering the compound before any wool growth measurements were taken.
At the start of the wool growth measurement period, a 10 cm square area of wool was removed from both sides of the sheep. After four weeks the same area was reclipped and the wool retained for scouring at the end of the trial.
The sheep then had protozoa introduced back into their rumen and were allowed to adjust for three weeks. Similarly, during the second four week period, the wool was clipped from the same patch area. The wool harvested during the two four week trial periods was then scoured of wool wax and extraneous material and weighed.

In data set [6] the test system is rumen ciliate protozoa. The data set can be described thus: Protozoal reduction in sheep. The class given is in vivo. The settings on record: one week after dosing, relative to predosing numbers. Also on record: concentration or dose not given beside the values.
Data set [7] can be described thus: Effect of defaunation compounds on feed intake of sheep. The class given is in vivo. As to conditions: after dosing vs pre-dosing intake.
The subject of data set [8] is protozoa. The data set can be described thus: Pilot field testing: elimination of protozoal population in sheep. The class given is in vivo. The settings on record: week 3, 167 mg/kg.
The nature of a further data set: Sheep test: feed intake. The class given is in vivo. The procedure: as §1, §2
Data set [9] has as its system protozoa. The data set can be described thus: Sheep test: protozoal numbers. The class given is in vivo. The protocol:
as §1, §2

Data set [10] concerns rumen ciliate protozoa. Nature of the data set: In vitro activity of defaunation compounds against rumen ciliate protozoa. It is filed as cell-based. As to conditions: 39° C., anaerobic, 3 hours, tested at 50, 150, 250 and 500 ppm.
In data set [11] the test system is protozoa. Nature of the data set: Pilot field testing: elimination of protozoal population in sheep. The class given is in vivo. The settings on record: for Elimination of protozoa: one week after single dose of 167 mg/kg. The procedure: as §3, §4

As to `Cc1ccc(Nc2nc(Cl)nc(Cl)n2)cc1Cl` [Compound 27, 2,4 dichloro-6-(3 chloro-4-methylanilino)-s-triazine], the Bacterial gas production in the data set with rumen bacteria [1] (1 week after 167 mg/kg) turned out to be 3.5 M1 per 5 hr; in the data set with rumen bacteria [1] (3 weeks after 167 mg/kg) it was 3.8 M1 per 5 hr; with rumen bacteria [1] (pre-dose (baseline)), 2.9 M1 per 5 hr. Besides, the “Elimination of protozoa from cattle (in words)” value in the data set with protozoa [2] was “able to eliminate protozoa from cattle”. Further, the Mean protozoal number in the data set on protozoa [2] (week 0, 332 mg/kg) was 220 per mL × 10^3; in the data set on protozoa [2] (week 4, 332 mg/kg) it was 0 per mL × 10^3. Further, the “Bact. Gas Inhibition at the conc. required to kill protozoa” value with rumen bacteria [3] stood at 67. In addition, the “Adverse effects and grazing behavior” value in data set [4] was “no adverse effects and grazing behavior was normal”. For the same compound, in the data set with protozoa [5], the “Prot. Number” value is recorded as 0 per mL × 10^3. In the data set with rumen ciliate protozoa [6], the “Protozoal Reduction” value amounted to 100%. Further, the “Feed Intake” value in [7] is given as “Okay (transient drop, less than 50% at day 2)”; in “Sheep test: feed intake” (1 week after 167 mg/kg), 1000 g/day; in “Sheep test: feed intake” (3 weeks after 167 mg/kg), 1000 g/day; in “Sheep test: feed intake” (pre-dose (baseline)) it was 966 g/day. Also, the Protozoal number in the data set with protozoa [8] was found to be 0 per mL × 10^3; in the data set on protozoa [11] (week 0, 167 mg/kg), 285 per mL × 10^3; in the data set with protozoa [11] (week 1, 167 mg/kg), 0 per mL × 10^3; in the data set with protozoa [11] (week 2, 167 mg/kg), 0 per mL × 10^3. For the same compound, the “Protozoal Nos.” value in the data set on protozoa [9] (1 week after 167 mg/kg) was found to be 0 per mL × 10^3; with protozoa [9] (3 weeks after 167 mg/kg) it was 0 per mL × 10^3; with protozoa [9] (pre-dose (baseline)) it was 950 per mL × 10^3. The “Conc Required to Kill all Protozoa” value with rumen ciliate protozoa [10] was 150 ppm. Also, in the data set on protozoa [11], the Elimination of protozoa entry is listed as “total elimination of protozoa in all sheep”.

Consider `Clc1nc(Cl)nc(Nc2ccccc2Cl)n1` [Compound 37, 2,4-dichloro-6-(2-chloroanilino)-1,3,5-triazine], for which the figures for the Bacterial gas production in the data set on rumen bacteria [1] (1 week after 167 mg/kg), in the data set on rumen bacteria [1] (3 weeks after 167 mg/kg) and in the data set with rumen bacteria [1] (pre-dose (baseline)) were 1.9 M1 per 5 hr, 3.4 M1 per 5 hr and 1.8 M1 per 5 hr, respectively. Further, the “Elimination of protozoa from cattle (in words)” value in the data set on protozoa [2] is “able to eliminate protozoa from cattle”. For the same compound, the Mean protozoal number was 313 per mL × 10^3 in the data set on protozoa [2] (week 0, 332 mg/kg) and 0 per mL × 10^3 in the data set with protozoa [2] (week 4, 332 mg/kg). Further, the “Bact. Gas Inhibition at the conc. required to kill protozoa” value in the data set on rumen bacteria [3] was 57. Besides, the “Adverse effects and grazing behavior” value in [4] was “no adverse effects and grazing behavior was normal”. Also, in the data set with protozoa [5], the “Prot. Number” value is 0 per mL × 10^3. Also, the “Protozoal Reduction” value in the data set on rumen ciliate protozoa [6] came out at 100%. The “Feed Intake” value is reported as “Okay (transient drop, less than 50% at day 2)” in data set [7]; 930 g/day in the data set “Sheep test: feed intake” (1 week after 167 mg/kg); 820 g/day in “Sheep test: feed intake” (3 weeks after 167 mg/kg); 1000 g/day in “Sheep test: feed intake” (pre-dose (baseline)). Further, the Protozoal number worked out at 0 per mL × 10^3 in the data set with protozoa [8]; 190 per mL × 10^3 in the data set on protozoa [11] (week 0, 167 mg/kg); 0 per mL × 10^3 with protozoa [11] (week 1, 167 mg/kg); 0 per mL × 10^3 with protozoa [11] (week 2, 167 mg/kg). The entries for the “Protozoal Nos.” value with protozoa [9] (1 week after 167 mg/kg), in the data set with protozoa [9] (3 weeks after 167 mg/kg) and in the data set with protozoa [9] (pre-dose (baseline)) were 0 per mL × 10^3, 0 per mL × 10^3 and 497 per mL × 10^3, respectively. Also, the “Conc Required to Kill all Protozoa” value in the data set on rumen ciliate protozoa [10] is 250 ppm. Besides, the Elimination of protozoa result in the data set with protozoa [11] is on record as “total elimination of protozoa in all sheep”.
